Experimental data reported in publication PMC4891693, “Discovery of prenylated flavonoids with dual activity against influenza virus and Streptococcus pneumoniae” (Scientific Reports, 2016).
Values after ≈ are worked out from the molar mass of the structure shown. Values joined by “and” are separate entries in the source; they are usually repeats but may differ in a detail not shown here. Equal values may be shown once. Read-outs that look alike come from different tables or passages of the source.

Key:
[1] = test system: NA of S. pneumoniae DSM20566 (precipitated bacterial proteins); assay: Hemagglutination (HA)-based NA inhibition assay, bacterial; assay type: biochemical, Streptococcus pneumoniae; conditions: pure compounds; total protein of DSM20566; human erythrocytes; highest tested 100 μM
Source text: Inhibition of pneumococcal NAs circumvents hemagglutination.

[2] = target: influenza virus A/WSN/33 NA (Influenza A virus, UniProt P03470); assay: biochemical
human erythrocytes [3] = test system: human erythrocytes
human erythrocytes [4] = test system: human erythrocytes; remark: listed apart in the source
in vitro [5] = conditions: dog
in vitro [6] = conditions: human
human erythrocytes [7] = assay: Interference with hemagglutination in the viral HA assay
[8] = test system: IAV Jena/8178/2009 (8178/09); assay: microbe, parasite or virus in culture; assay type: cell-based, Influenza A virus; conditions: Influenza A virus, MDCK, 48 h; read-out: IC50 of CPE IAV 8178/09
influenza virus A/WSN/33 = assay: microbe, parasite or virus in culture; assay type: cell-based; conditions: WSN, MDCK, read-out: IC50 of CPE assay (A/WSN/33)

Sequence of influenza virus A/WSN/33 NA (P03470 whole entry, looked up): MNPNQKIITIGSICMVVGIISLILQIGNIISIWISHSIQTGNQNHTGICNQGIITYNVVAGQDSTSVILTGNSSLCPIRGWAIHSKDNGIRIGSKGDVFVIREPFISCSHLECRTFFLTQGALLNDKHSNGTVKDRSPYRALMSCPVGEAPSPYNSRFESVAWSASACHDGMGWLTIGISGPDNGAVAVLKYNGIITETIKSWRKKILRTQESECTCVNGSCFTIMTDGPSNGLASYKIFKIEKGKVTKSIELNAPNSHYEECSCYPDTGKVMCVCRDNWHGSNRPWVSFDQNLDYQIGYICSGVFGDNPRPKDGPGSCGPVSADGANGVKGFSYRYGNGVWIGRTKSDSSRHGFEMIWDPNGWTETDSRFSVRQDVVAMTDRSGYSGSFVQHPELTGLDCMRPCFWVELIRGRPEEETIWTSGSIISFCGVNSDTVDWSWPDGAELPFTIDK

Row | SMILES | MIC in HA assay against S. pneumoniae DSM20566 [1] | IC50 [2] [µM] | sample concentrations provoking induction of erythrocyte lysis in viral HA assay (human erythrocytes [3]; human) | sample concentrations provoking induction of erythrocyte lysis in bacterial HA assay (human erythrocytes [4]; human) | CC50 (in vitro [5]) [µM] | CC50 (in vitro [6]) [µM] | sample concentrations provoking prevention of virus-induced hemagglutination in viral HA assay (human erythrocytes [7]) | sample concentrations provoking induction of erythrocyte lysis in viral HA assay (human erythrocytes [3]) | CC50 at 72 h (in vitro [5]) [µM] | CC50 at 72 h (in vitro [6]) [µM] | IC50 [8] [µM] | IC50 (influenza virus A/WSN/33) [µM] | sample concentrations provoking induction of erythrocyte lysis in bacterial HA assay (human erythrocytes [4])
1 | CC1=C[C@H](c2c(O)ccc([C@@H]3CC(=O)c4c(O)cc(O)cc4O3)c2O)[C@@H](C(=O)c2ccc(O)cc2O)[C@H](c2ccc(O)cc2O)C1 [Compound 6, kuwanon L] | 31.6 µM and 31.6 ± 0.00 µM | 37.2 ± 10.6 | 100 µM | 100 µM | > 100 | 94.4 ± 4.73 | 31.6 µM | – | – | – | – | – | –
2 | CC(C)=CCc1c(O)c(CC=C(C)C)c2c(c1O)C(=O)C[C@@H](c1ccc(O)cc1)O2 [Compound 28, 6,8-diprenylnaringenin] | 15.4 ± 10.8 µM (≈ 6.29 µg/mL) | > 100 | – | 100 µM | – | – | no | no | 15.8 ± 7.58 | 59.1 ± 19.8 | – | – | –
3 | COc1ccc(C2CC(=O)c3c(cc(O)c(CC=C(C)C)c3O)O2)cc1 (stereo not drawn) [Compound 19] | – | > 100 | – | 31.6 to 100 µM | – | – | no | no | 50.5 ± 6.32 | > 100 | – | – | –
4 | CC(C)=CCc1cc(C2CC(=O)c3ccc(O)cc3O2)ccc1O (racemic) [Compound 18, (±)-abyssinone II] | – | > 100 | – | – | – | – | no | no | 59.2 ± 15 | > 100 | 25.9 ± 3.67 | 11.4 ± 3 | no
5 | CC(C)=CC[C@]12Oc3cc(O)c([C@H]4C=C(C)C[C@H](c5ccc(O)cc5O)[C@H]4C(=O)c4ccc(O)cc4O)c(O)c3C(=O)[C@@]1(O)Oc1cc(O)ccc12 [Compound 2, sanggenon C] | – | 9.18 ± 1.5 | 10 to 100 µM | 31.6 to 100 µM | 51.7 ± 12.2 | 32.6 ± 9.07 | 3.1 to 100 µM | – | – | – | 8.3 ± 0.7 | – | –
6 | CC(C)=CCC12Oc3cc(O)c(C4=CC5(C)CC(C4)c4ccc(O)cc4O5)c(O)c3C(=O)C1(O)Oc1cc(O)ccc12 (stereo not drawn) [Compound 1, sanggenon B] | 31.6 ± 0.00 µM (≈ 18 µg/mL) | 31.2 ± 10.1 | 100 or no | 100 µM | 28.1 ± 7.26 | 32 ± 9.16 | 31.6 µM | – | – | – | – | – | –
7 | CC(C)=CCC/C(C)=C/Cc1c(O)cc2c(c1O)C(=O)[C@H](O)[C@@H](c1ccc(O)cc1)O2 [Compound 26, bonanniol A] | 10.0 ± 0.00 µM (≈ 4.24 µg/mL) | 63.9 ± 11.1 | 31.6 to 100 µM | 100 µM | – | – | no | – | 42.2 ± 22.6 | 63.2 ± 25.9 | – | – | –
8 | CC(C)=CCC/C(C)=C/Cc1c(O)cc(O)c2c1OC(c1ccccc1)CC2=O (racemic) [Compound 24, (R,S)-8-geranyl-5,7-dihydroxyflavanone] | 3.16 ± 0.00 µM (≈ 1.24 µg/mL) | > 100 | – | 100 µM | – | – | 100 µM | no | 60.6 ± 3.81 | > 100 | – | – | –
9 | CC(C)=CCc1c(O)c(CC=C(C)C)c2c(c1O)C(=O)C(c1ccc(O)cc1O)CO2 (stereo not drawn) [Compound 32, orientanol E] | 10.0 ± 0.00 µM (≈ 4.24 µg/mL) | 26.9 ± 1.85 | 31.6 to 100 µM | 31.6 to 100 µM | – | – | no | – | 21.4 ± 0.73 | 79.6 ± 2.77 | – | – | –
10 | COc1cc(C2CC(=O)c3c(cc(O)c(CC=C(C)C)c3O)O2)ccc1O (stereo not drawn) [Compound 22, 2,3-dihydro-5,7-dihydroxy-2-(4-hydroxy-3-methoxyphenyl)-6-(3-methyl-2-buten-1-yl)-4H-1-benzopyran-4-one] | 31.6 ± 0.00 µM (≈ 11.7 µg/mL) | > 100 | – | – | – | – | no | no | 63.4 ± 8.31 | > 100 | – | – | no
11 | CC(C)=CCc1c(O)cc(O)c2c1O[C@@H](c1ccc(O)cc1)[C@H](O)C2=O (relative stereo) [Compound 23, (2R,3R)-rel-4H-2,3-dihydro-3,5,7-trihydroxy-2-(4-hydroxyphenyl)-8-(3-methyl-2-buten-1-yl)-1-benzopyran-4-one] | 31.6 ± 0.00 µM (≈ 11.3 µg/mL) | 27 ± 3.24 | – | – | – | – | no | no | 69 ± 3.56 | > 100 | 24.7 ± 4.55 | – | no
12 | CC(C)=CCC/C(C)=C/Cc1c(O)cc2c(c1O)C(=O)CC(c1ccc(O)c(O)c1)O2 (stereo not drawn) [Compound 25] | 14.3 ± 9.66 µM (≈ 6.07 µg/mL) | 41.4 ± 6.98 | 100 or no | 100 µM | – | – | 31.6 µM | – | 55.8 ± 4.41 | > 100 | – | – | –
13 | CC(C)=CCc1c(O)c(CC=C(C)C)c2c(c1O)C(=O)CC(c1cc(O)cc(O)c1)O2 (stereo not drawn) [Compound 29, 2-(3,5-dihydroxyphenyl)-2,3-dihydro-5,7-dihydroxy-6,8-bis(3-methyl-2-buten-1-yl)-4H-1-benzopyran-4-one] | 31.6 ± 0.00 µM (≈ 13.4 µg/mL) | 53.1 ± 17.5 | 100 µM | 100 µM | – | – | 31.6 to 100 µM | – | 34 ± 7.96 | 80.6 ± 2.47 | – | – | –
14 | COc1cc(C2CC(=O)c3c(O)cc(O)cc3O2)cc(CC=C(C)C)c1O (stereo not drawn) [Compound 21, 2,3-dihydro-5,7-dihydroxy-2-[4-hydroxy-3-methoxy-5-(3-methyl-2-butenyl)phenyl]-4H-1-benzopyran-4-one] | 65.8 ± 37.5 µM (≈ 24.4 µg/mL) | 45.5 ± 6.06 | – | – | – | – | no | no | 64.9 ± 1.28 | > 100 | – | – | no
15 | CC(C)=CCc1c(O)cc(CCc2ccccc2)c(CC=C(C)C)c1O [Compound 33, 2,4-bis(3-methyl-2-buten-1-yl)-5-(2-phenylethyl)-1,3-benzenediol] | 10.0 ± 0.00 µM (≈ 3.51 µg/mL) | 97.7 ± 0.46 | – | – | – | – | no | no | 33.4 ± 21.4 | 41.7 ± 14.6 | – | – | no
16 | CC(C)=CCc1c(O)c(CC=C(C)C)c2[nH]c3c(O)cccc3c(=O)c2c1O [Compound 34, atalphylline] | 17.2 ± 12.5 µM (≈ 6.53 µg/mL) | > 100 | – | – | 0.63 ± 0.04 | 60.4 ± 16.8 | no | no | – | – | – | – | no
17 | CC(C)=CCc1c(O)c(CC=C(C)C)c2occ(-c3ccc(O)c(O)c3)c(=O)c2c1O [Compound 31, 6,8-diprenylorobol] | – | 37.9 ± 14.6 | 31.6 to 100 µM | 100 µM | – | – | no | – | 20 ± 1.53 | 47.1 ± 2.83 | – | – | –
18 | COc1cc(C2CC(=O)c3c(O)cc(O)cc3O2)ccc1O (racemic) [Compound 9, (±)-homoeriodictyol] | – | – | – | – | – | – | no | no | – | – | – | – | no
19 | CC(C)=CCc1cc(C2CC(=O)c3c(O)cc(O)cc3O2)ccc1O (stereo not drawn) [Compound 20, 4',5,7-trihydroxy-3'-prenylflavanone] | – | > 100 | 100 or no | 100 or no | – | – | no | – | 67.9 ± 2.62 | > 100 | – | – | –
20 | CC(C)=CCc1c(O)c(CC=C(C)C)c2occ(-c3ccc(O)cc3)c(=O)c2c1O [Compound 30, 6,8-diprenylgenistein] | 10.0 ± 0.00 µM (≈ 4.06 µg/mL) | 62.5 ± 5.4 | – | 31.6 to 100 µM | – | – | 10 to 100 µM | no | 21.1 ± 0.91 | 48.8 ± 16 | – | – | –
